Laboratory results: patent publication US6348435B1, “Substituted 2,4-diamino-1,3,5-triazine and their use as herbicides” (Bayer Aktiengesellschaft, priority 1997, dated 2002)

How the values were obtained:
weeds [1] = experiment: Post-emergence test, summary on weeds; assay type: in vivo; conditions: result in words
Experimental: (§1) Solvent: 5 parts by weight of acetone
(§2) Emulsifier: 1 part by weight of alkylaryl polyglycol ether
(§3) To produce a suitable preparation of active compound, 1 part by weight of active compound is mixed with the stated amount of solvent, the stated amount of emulsifier is added and the concentrate is diluted with water to the desired concentration.
(§4) Test plants having a height of 5-15 cm are sprayed with the preparation of active compound such that the particular amounts of active compound desired are applied per unit area. The concentration of the spray liquor is chosen so that the particular amounts of active compound desired are applied in 1000 l of water/ha.
(§5) After three weeks, the degree of damage to the plants is rated in % damage in comparison with the development of the untreated control.
(§6) 0%=no effect (like untreated control)

Galium = experiment: Pre-emergence test/greenhouse; assay type: in vivo; conditions: 1000 g of ai./ha, rated after three weeks vs untreated control, 0%=no effect, 100%=total destruction
Experimental: (§7) Pre-emergence Test Solvent: 5 parts by weight of acetone Emulsifier: 1 part by weight of alkylaryl polyglycol ether To produce a suitable preparation of active compound, 1 part by weight of active compound is mixed with the stated amount of solvent, the stated amount of emulsifier is added and the concentrate is diluted with water to the desired concentration. Seeds of the test plants are sown in normal soil. After about 24 hours, the soil is sprayed with the preparation of active compound such that the particular amounts of active compound desired are applied per unit area. The concentration of the spray liquor is chosen so that the particular amounts of active compound desired are applied in 1000 l of water/ha. After three weeks, the degree of damage to the plants is rated in % damage in comparison with the development of the untreated control. The figures denote: 0%=no effect (like untreated control) 100%=total destruction

Sinapis [2] = experiment: Pre-emergence test/greenhouse; assay type: in vivo; conditions: 1000 g of ai./ha, rated after three weeks vs untreated control, 0%=no effect, 100%=total destruction
Experimental: as §7

Setaria [3] = experiment: Pre-emergence test/greenhouse; assay type: in vivo; conditions: 1000 g of ai./ha, rated after three weeks vs untreated control, 0%=no effect, 100%=total destruction
Experimental: as §7

Maize [4] = experiment: Pre-emergence test/greenhouse; assay type: in vivo; conditions: for degree of damage to the plants, Maize: pre-emergence, 1000 g of ai./ha, rated after three weeks vs untreated control, 0%=no effect, 100%=total destruction; for tolerance by crop plants, such as, for example, maize: pre-emergence test, result in words
Experimental: as §7

Amaranthus [5] = experiment: Pre-emergence test/greenhouse; assay type: in vivo; conditions: 1000 g of ai./ha, rated after three weeks vs untreated control, 0%=no effect, 100%=total destruction
Experimental: as §7

weeds [6] = experiment: Pre-emergence test, summary on weeds; assay type: in vivo; conditions: result in words
Experimental: as §7

Xanthium = experiment: Post-emergence test/greenhouse; assay type: in vivo; conditions: 1000 g of ai./ha, plants 5-15 cm sprayed, rated after three weeks vs untreated control, 0%=no effect, 100%=total destruction
Experimental: as §1, §2, §3, §4, §5, §6

Sinapis [7] = experiment: Post-emergence test/greenhouse; assay type: in vivo; conditions: 504 h, 1000 g of ai./ha, plants 5-15 cm sprayed, rated after three weeks vs untreated control, 0%=no effect, 100%=total destruction, read-out: degree of damage to the plants, Sinapis
Experimental: as §1, §2, §3, §4, §5, §6

Setaria [8] = experiment: Post-emergence test/greenhouse; assay type: in vivo; conditions: 504 h, 1000 g of ai./ha, plants 5-15 cm sprayed, rated after three weeks vs untreated control, 0%=no effect, 100%=total destruction, read-out: degree of damage to the plants, Setaria
Experimental: as §1, §2, §3, §4, §5, §6

Amaranthus [9] = experiment: Post-emergence test/greenhouse; assay type: in vivo; conditions: 504 h, 1000 g of ai./ha, plants 5-15 cm sprayed, rated after three weeks vs untreated control, 0%=no effect, 100%=total destruction, read-out: degree of damage to the plants, Amaranthus
Experimental: as §1, §2, §3, §4, §5, §6

Abutilon = experiment: Post-emergence test/greenhouse; assay type: in vivo; conditions: 504 h, 1000 g of ai./ha, plants 5-15 cm sprayed, rated after three weeks vs untreated control, 0%=no effect, 100%=total destruction, read-out: degree of damage to the plants, Abutilon
Experimental: as §1, §2, §3, §4, §5, §6

Maize [10] = experiment: Post-emergence test/greenhouse; assay type: in vivo; conditions: Zea mays, 504 h, 1000 g of ai./ha, plants 5-15 cm sprayed, rated after three weeks vs untreated control, 0%=no effect, 100%=total destruction, read-out: degree of damage to the plants, Maize
Experimental: as §1, §2, §3, §4, §5, §6

Structure (SMILES): CCC(Nc1nc(N)nc(C(Cl)Cl)n1)c1cccs1 (stereo not shown) [Example 13]
- action against weeds (weeds [1]): strong action

Structure (SMILES): CCC(Nc1nc(NC(C)=O)nc(C(C)F)n1)c1cccs1 (stereo not shown) [drawing 224]
- degree of damage to the plants, Galium (Galium): 100%
- degree of damage to the plants, Sinapis (Sinapis [2]): 100%
- degree of damage to the plants, Setaria (Setaria [3]): 100%
- degree of damage to the plants, Maize (Maize [4]): 0%
- degree of damage to the plants, Amaranthus (Amaranthus [5]): 95%

Structure (SMILES): CCC(Nc1nc(N)nc(C(C)F)n1)c1cccs1 (stereo not shown) [Example 15]
- tolerance by crop plants, such as, for example, maize (Maize [4]): tolerated very well
- action against weeds (weeds [6]): strong action
- action against weeds (weeds [1]): strong action

Structure (SMILES): CCC(Nc1nc(NC(C)=O)nc(C(C)(Cl)Cl)n1)c1cccs1 (stereo not shown) [drawing 238]
- degree of damage to the plants, Xanthium (Xanthium): 100%
- pest or weed control at 1000 g/ha (Sinapis [7]): 100%
- pest or weed control at 1000 g/ha (Setaria [8]): 100%
- pest or weed control at 1000 g/ha (Amaranthus [9]): 100%

Structure (SMILES): CCc1nc(N)nc(NC(C)c2cccs2)n1 (stereo not shown) [Example 1, 2-amino-4-ethyl-6-(1-thien-2-yl-ethylamino)-1,3,5-triazine]
- action against weeds (weeds [1]): strong action

Structure (SMILES): CC(Nc1nc(N)nc(C(Cl)Cl)n1)c1cccs1 (stereo not shown) [Example 5]
- melting point: 135 °C
- action against weeds (weeds [1]): strong action

Structure (SMILES): CCc1nc(NC(C)=O)nc(NC(C)c2cccs2)n1 (stereo not shown) [drawing 226]
- pest or weed control at 1000 g/ha (Abutilon): 100%
- pest or weed control at 1000 g/ha (Sinapis [7]): 100%
- pest or weed control at 1000 g/ha (Setaria [8]): 90%
- plant injury at 1000 g/ha (Maize [10]): 0%
- pest or weed control at 1000 g/ha (Amaranthus [9]): 100%

Structure (SMILES): CCC(Nc1nc(NC(C)=O)nc(C(C)F)n1)c1cccs1 (stereo not shown) [drawing 235]
- pest or weed control at 1000 g/ha (Abutilon): 100%
- pest or weed control at 1000 g/ha (Sinapis [7]): 100%
- pest or weed control at 1000 g/ha (Setaria [8]): 100%
- pest or weed control at 1000 g/ha (Amaranthus [9]): 100%

Structure (SMILES): CCC(Nc1nc(NC(C)=O)nc(C(Cl)Cl)n1)c1cccs1 (stereo not shown) [drawing 232]
- pest or weed control at 1000 g/ha (Abutilon): 100%
- pest or weed control at 1000 g/ha (Sinapis [7]): 100%
- pest or weed control at 1000 g/ha (Setaria [8]): 100%
- plant injury at 1000 g/ha (Maize [10]): 0%
- pest or weed control at 1000 g/ha (Amaranthus [9]): 100%

Structure (SMILES): CCc1nc(NC(C)=O)nc(NC(CC)c2cccs2)n1 (stereo not shown) [drawing 231]
- pest or weed control at 1000 g/ha (Abutilon): 100%
- pest or weed control at 1000 g/ha (Sinapis [7]): 100%
- pest or weed control at 1000 g/ha (Setaria [8]): 100%
- plant injury at 1000 g/ha (Maize [10]): 20%
- pest or weed control at 1000 g/ha (Amaranthus [9]): 100%

Structure (SMILES): CCc1nc(N)nc(NC(CC)c2cccs2)n1 (stereo not shown) [drawing 227]
- pest or weed control at 1000 g/ha (Abutilon): 100%
- pest or weed control at 1000 g/ha (Sinapis [7]): 100%
- pest or weed control at 1000 g/ha (Setaria [8]): 100%
- plant injury at 1000 g/ha (Maize [10]): 30%
- pest or weed control at 1000 g/ha (Amaranthus [9]): 100%

Structure (SMILES): CCc1nc(NC(C)=O)nc(NC(C)c2cccs2)n1 (stereo not shown) [Example 2, 2-acetylamino-4-ethyl-6-(1-thien-2-yl-ethyl-amino)-1,3,5-triazine]
- melting point: 153 °C
- action against weeds (weeds [1]): strong action

Structure (SMILES): CCc1nc(N)nc(NC(CC)c2cccs2)n1 (stereo not shown) [Example 11]
- action against weeds (weeds [1]): strong action

Structure (SMILES): CCC(Nc1nc(N)nc(C(C)F)n1)c1cccs1 (stereo not shown) [drawing 223]
- degree of damage to the plants, Galium (Galium): 100%
- degree of damage to the plants, Setaria (Setaria [3]): 90%
- degree of damage to the plants, Maize (Maize [4]): 0%
- degree of damage to the plants, Amaranthus (Amaranthus [5]): 100%

Structure (SMILES): CCC(Nc1nc(N)nc(C(C)F)n1)c1cccs1 (stereo not shown) [drawing 229]
- pest or weed control at 1000 g/ha (Abutilon): 100%
- pest or weed control at 1000 g/ha (Sinapis [7]): 100%
- pest or weed control at 1000 g/ha (Setaria [8]): 100%
- plant injury at 1000 g/ha (Maize [10]): 0%
- pest or weed control at 1000 g/ha (Amaranthus [9]): 100%

Structure (SMILES): CCC(Nc1nc(NC(C)=O)nc(C(Cl)Cl)n1)c1cccs1 (stereo not shown) [Example 20]
- melting point: 131 °C
- action against weeds (weeds [1]): strong action

Structure (SMILES): CCC(Nc1nc(N)nc(C(C)Cl)n1)c1cccs1 (stereo not shown) [Example 14]
- action against weeds (weeds [1]): strong action

Structure (SMILES): CCC(Nc1nc(NC(C)=O)nc(C(C)Cl)n1)c1cccs1 (stereo not shown) [Example 21]
- action against weeds (weeds [1]): strong action

Structure (SMILES): CCC(Nc1nc(N)nc(C(Cl)Cl)n1)c1cccs1 (stereo not shown) [drawing 237]
- degree of damage to the plants, Xanthium (Xanthium): 80%
- pest or weed control at 1000 g/ha (Sinapis [7]): 100%
- pest or weed control at 1000 g/ha (Setaria [8]): 100%
- plant injury at 1000 g/ha (Maize [10]): 10%
- pest or weed control at 1000 g/ha (Amaranthus [9]): 100%

Structure (SMILES): CC(Cl)c1nc(N)nc(NC(C)c2cccs2)n1 (stereo not shown) [drawing 236]
- degree of damage to the plants, Xanthium (Xanthium): 100%
- pest or weed control at 1000 g/ha (Abutilon): 100%
- plant injury at 1000 g/ha (Maize [10]): 0%
- pest or weed control at 1000 g/ha (Amaranthus [9]): 100%

Structure (SMILES): CCC(Nc1nc(NC(C)=O)nc(C(C)Cl)n1)c1cccs1 (stereo not shown) [drawing 233]
- pest or weed control at 1000 g/ha (Abutilon): 100%
- pest or weed control at 1000 g/ha (Sinapis [7]): 100%
- pest or weed control at 1000 g/ha (Setaria [8]): 100%
- plant injury at 1000 g/ha (Maize [10]): 0%
- pest or weed control at 1000 g/ha (Amaranthus [9]): 100%

Structure (SMILES): CCC(Nc1nc(N)nc(C(F)C(F)(F)F)n1)c1cccs1 (stereo not shown) [drawing 230]
- pest or weed control at 1000 g/ha (Abutilon): 100%
- pest or weed control at 1000 g/ha (Sinapis [7]): 100%
- pest or weed control at 1000 g/ha (Setaria [8]): 100%
- plant injury at 1000 g/ha (Maize [10]): 10%
- pest or weed control at 1000 g/ha (Amaranthus [9]): 100%

Structure (SMILES): CCC(Nc1nc(NC(C)=O)nc(C(C)F)n1)c1cccs1 (stereo not shown) [Example 22]
- tolerance by crop plants, such as, for example, maize (Maize [4]): tolerated very well
- action against weeds (weeds [6]): strong action
- action against weeds (weeds [1]): strong action

Structure (SMILES): CCC(Nc1nc(N)nc(C(F)C(F)(F)F)n1)c1cccs1 (stereo not shown) [Example 16]
- action against weeds (weeds [1]): strong action

Structure (SMILES): CCc1nc(NC(C)=O)nc(NC(CC)c2cccs2)n1 (stereo not shown) [Example 18]
- action against weeds (weeds [1]): strong action

Structure (SMILES): CCc1nc(N)nc(NC(C)c2cccs2)n1 (stereo not shown) [drawing 225]
- pest or weed control at 1000 g/ha (Abutilon): 100%
- pest or weed control at 1000 g/ha (Sinapis [7]): 100%
- plant injury at 1000 g/ha (Maize [10]): 30%
- pest or weed control at 1000 g/ha (Amaranthus [9]): 100%

Structure (SMILES): CCC(Nc1nc(N)nc(C(C)Cl)n1)c1cccs1 (stereo not shown) [drawing 228]
- pest or weed control at 1000 g/ha (Abutilon): 100%
- pest or weed control at 1000 g/ha (Sinapis [7]): 100%
- pest or weed control at 1000 g/ha (Setaria [8]): 100%
- plant injury at 1000 g/ha (Maize [10]): 30%
- pest or weed control at 1000 g/ha (Amaranthus [9]): 100%

Structure (SMILES): CCC(Nc1nc(NC(C)=O)nc(C(C)(Cl)Cl)n1)c1cccs1 (stereo not shown) [Example 24]
- melting point: 113 °C
- action against weeds (weeds [1]): strong action

Structure (SMILES): CC(Cl)c1nc(N)nc(NC(C)c2cccs2)n1 (stereo not shown) [Example 6]
- melting point: 125 °C
- action against weeds (weeds [1]): strong action

Structure (SMILES): CC(Nc1nc(N)nc(C(Cl)Cl)n1)c1cccs1 (stereo not shown) [drawing 234]
- pest or weed control at 1000 g/ha (Abutilon): 100%
- pest or weed control at 1000 g/ha (Sinapis [7]): 100%
- pest or weed control at 1000 g/ha (Setaria [8]): 90%
- pest or weed control at 1000 g/ha (Amaranthus [9]): 100%
